From article PMC3677616, “Interaction of Human Dopa Decarboxylase with L-Dopa: Spectroscopic and Kinetic Studies as a Function of pH” (BioMed Research International, 2013)

Tests used:
[1] = molecular target: T1, hDDC (human Dopa decarboxylase) (Homo sapiens, UniProt P20711); experiment: stopped-flow absorbance at […] nm, hyperbolic fit of kobs (two-step binding); details: read-out: K1
T1 construct: gene DDC; homodimer
T1 sequence (P20711 1-480): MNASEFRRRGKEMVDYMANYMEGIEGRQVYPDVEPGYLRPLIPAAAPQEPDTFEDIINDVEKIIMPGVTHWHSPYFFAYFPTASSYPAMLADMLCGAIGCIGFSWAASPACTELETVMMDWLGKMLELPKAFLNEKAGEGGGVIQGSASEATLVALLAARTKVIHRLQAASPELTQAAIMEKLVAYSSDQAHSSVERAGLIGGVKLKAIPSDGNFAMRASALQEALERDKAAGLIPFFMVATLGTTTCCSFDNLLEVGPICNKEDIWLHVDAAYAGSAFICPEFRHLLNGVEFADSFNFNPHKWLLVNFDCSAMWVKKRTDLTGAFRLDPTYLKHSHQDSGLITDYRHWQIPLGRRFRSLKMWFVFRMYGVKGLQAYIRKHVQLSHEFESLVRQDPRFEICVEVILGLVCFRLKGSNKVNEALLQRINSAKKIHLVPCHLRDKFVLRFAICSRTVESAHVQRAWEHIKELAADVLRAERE

[2] = molecular target: T1, hDDC (human Dopa decarboxylase); experiment: quenching of intrinsic fluorescence of apoenzyme, tight-binding quadratic fit; details: read-out: KD(PLP)
[3] = substrate: N[C@@H](Cc1ccc(O)c(O)c1)C(=O)O; experiment: steady-state decarboxylation, spectrophotometric assay, Michaelis-Menten fit; assay type: biochemical, Homo sapiens; details: pH 6.0, 50 mM Bis-Tris-propane, 10 μM PLP, 25°C

## N[C@@H](Cc1ccc(O)c(O)c1)C(=O)O [L-Dopa]
[1]
  Kd: 320 ± 20 µM

## Cc1ncc(COP(=O)(O)O)c(C=O)c1O [PLP]
[2]
  Kd: 0.2 µM

B1: hDDC (human Dopa decarboxylase) (Homo sapiens) (protein)
chain: MNASEFRRRGKEMVDYMANYMEGIEGRQVYPDVEPGYLRPLIPAAAPQEPDTFEDIINDVEKIIMPGVTHWHSPYFFAYFPTASSYPAMLADMLCGAIGCIGFSWAASPACTELETVMMDWLGKMLELPKAFLNEKAGEGGGVIQGSASEATLVALLAARTKVIHRLQAASPELTQAAIMEKLVAYSSDQAHSSVERAGLIGGVKLKAIPSDGNFAMRASALQEALERDKAAGLIPFFMVATLGTTTCCSFDNLLEVGPICNKEDIWLHVDAAYAGSAFICPEFRHLLNGVEFADSFNFNPHKWLLVNFDCSAMWVKKRTDLTGAFRLDPTYLKHSHQDSGLITDYRHWQIPLGRRFRSLKMWFVFRMYGVKGLQAYIRKHVQLSHEFESLVRQDPRFEICVEVILGLVCFRLKGSNKVNEALLQRINSAKKIHLVPCHLRDKFVLRFAICSRTVESAHVQRAWEHIKELAADVLRAERE
notes: homodimer
[3]
  Km: 230 ± 30 µM
  kcat: 3 s⁻¹
